Like-named read-outs stand apart in the source and are kept apart here.
Tests used:
[1] = target: Siglec-1 (sialoadhesin) (Mus musculus, UniProt Q62230); experiment: Hapten inhibition assay, Siglec-1 (sialoadhesin); format: binding; settings: for Siglec-1 (sialoadhesin) rIP: quotient IC50 reference compound / IC50 compound; for Siglec-1 (sialoadhesin) percentage in parentheses below the IC50 bound: at the concentration of the IC50 bound, meaning not defined in the patent
Procedure: Preferably, the inhibition can be determined by a Hapten inhibition test. […] After overnight incubation at 4° C. the unbound complexes are removed by washing the cells and the bound radioactivity is determined. From the data obtained in this way, the concentrations are found which lead to 50% inhibition of the binding (IC50 values) (5, 6). Specially preferred during the Hapten inhibition test was 10 μl of the complex solution with an activity of 10^3 Bq ^125I mixed with the same volume of a solution of the substance to be investigated (concentrated three times) and incubated at 4° C. for one hour. Then followed the addition of 10 μl of a suspension of target cells, preferably 0.25 to 0.5% of human erythrocytes and incubation overnight at 4° C. The unbound radioactivity is removed by washing the cells five times with 200 μl of washing buffer, preferably phosphate-buffered saline with 0.1% (W/V) bovine serum albumin, and the cell-bound activity is determined with a γ-counter. […] The inhibition is determined in that the value without inhibitor is set to 0% and that with the sialidase-treated cells is set equal to 100%.
The IC50 value is the siglec inhibitor concentration which leads to 50% inhibition in the binding in the Hapten inhibition assay.

[2] = target: T1, Siglec-4a (MAG) (UniProt P20917); experiment: Hapten inhibition assay, Siglec-4a (MAG); settings: for Siglec-4a (MAG) rIP: quotient IC50 reference compound / IC50 compound; for IC50: read-out: Siglec-4a (MAG) IC50; for Siglec-4a (MAG) percentage in parentheses below the IC50 bound: at the concentration of the IC50 bound, meaning not defined in the patent
T1 sequence (P20917 1-627): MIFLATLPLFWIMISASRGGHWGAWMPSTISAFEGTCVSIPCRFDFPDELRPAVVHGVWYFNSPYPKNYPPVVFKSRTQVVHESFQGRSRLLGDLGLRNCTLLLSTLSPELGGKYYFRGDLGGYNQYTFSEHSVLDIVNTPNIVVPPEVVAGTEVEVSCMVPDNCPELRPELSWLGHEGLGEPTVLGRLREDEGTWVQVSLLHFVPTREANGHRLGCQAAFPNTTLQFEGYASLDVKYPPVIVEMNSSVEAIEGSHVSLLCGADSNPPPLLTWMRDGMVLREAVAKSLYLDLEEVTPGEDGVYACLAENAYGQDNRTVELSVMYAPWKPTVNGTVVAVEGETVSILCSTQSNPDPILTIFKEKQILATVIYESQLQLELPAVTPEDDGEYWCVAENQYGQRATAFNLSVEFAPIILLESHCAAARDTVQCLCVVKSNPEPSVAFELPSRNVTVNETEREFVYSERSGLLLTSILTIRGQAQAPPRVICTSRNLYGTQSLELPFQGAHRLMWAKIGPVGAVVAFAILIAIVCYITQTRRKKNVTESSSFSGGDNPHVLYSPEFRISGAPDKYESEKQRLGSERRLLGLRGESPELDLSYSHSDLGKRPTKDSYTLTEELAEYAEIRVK

[3] = target: T2, Siglec-2 (human CD22) (Homo sapiens, UniProt P20273); experiment: Hapten inhibition assay, Siglec-2 (human CD22); format: binding; settings: for Siglec-2 (human CD22) rIP: quotient IC50 reference compound / IC50 compound; for IC50: unit inferred
T2 sequence (P20273 20-138 limits assumed): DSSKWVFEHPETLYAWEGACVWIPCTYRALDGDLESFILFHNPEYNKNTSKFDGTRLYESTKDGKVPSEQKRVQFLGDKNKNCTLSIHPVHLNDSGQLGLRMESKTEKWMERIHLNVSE

[4] = target: T3, Siglec-2 (murine CD22) (Mus musculus, UniProt P35329); experiment: Hapten inhibition assay, Siglec-2 (murine CD22); format: binding; settings: for Siglec-2 (murine CD22) rIP: quotient IC50 reference compound / IC50 compound; for IC50: unit inferred
T3 sequence (P35329 22-148 limits assumed): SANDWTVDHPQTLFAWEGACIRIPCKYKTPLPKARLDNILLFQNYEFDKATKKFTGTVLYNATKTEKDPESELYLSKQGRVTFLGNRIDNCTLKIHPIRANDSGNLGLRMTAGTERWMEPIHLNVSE

Siglec-1 (sialoadhesin), sequence (Q62230 20-136 limits assumed): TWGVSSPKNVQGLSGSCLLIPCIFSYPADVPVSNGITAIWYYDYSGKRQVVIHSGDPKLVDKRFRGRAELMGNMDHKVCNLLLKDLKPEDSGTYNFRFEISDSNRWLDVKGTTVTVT

| Compound | Siglec-1 (sialoadhesin) rIP [1] | IC50 ([1]; unit inferred) [mM] | Siglec-4a (MAG) rIP [2] | IC50 ([2]; unit inferred) [mM] | Siglec-2 (human CD22) rIP [3] | IC50 [3] [µM] | Siglec-2 (murine CD22) rIP [4] | IC50 [4] [µM] | Siglec-1 (sialoadhesin) percentage in parentheses below the IC50 bound [1] | IC50 ([1]; bounds given in mM) [mM] | Siglec-4a (MAG) percentage in parentheses below the IC50 bound [2] | IC50 ([2]; bounds given in mM) [mM] |
| --- | --- | --- | --- | --- | --- | --- | --- | --- | --- | --- | --- | --- |
| CC(=O)N[C@H]1[C@H]([C@H](O)[C@H](O)CO)O[C@@](SCc2ccccc2)(C(=O)O)C[C@@H]1O [Benzylthio-α-Neu5Ac] | 4.1 | 0.28 | 3.0 | 2 |  |  |  |  |  |  |  |  |
| O=C(NC1C(O)CC(OCc2ccccc2)(C(=O)O)OC1C(O)C(O)CO)c1ccccc1 (stereo not drawn) [Benzyl-α-5-N-benzoyl-neuraminic acid] | <0.05 |  | >0.27 |  |  |  |  |  | (63%) | > 10 | (27%) | < 10 |
| CCCC(=O)N[C@H]1[C@H]([C@H](O)[C@H](O)CO)O[C@@](OCc2ccccc2)(C(=O)O)C[C@@H]1O [Benzyl-α-5-N-butanoyl-neuraminic acid] | 2.7 | 0.25 | 1.5 | 5.3 |  |  |  |  |  |  |  |  |
| CO[C@]1(C(=O)O)C[C@H](O)[C@@H](NC(C)=O)[C@H]([C@H](O)[C@H](O)CNC(=O)c2ccccc2-c2ccccc2)O1 [Methyl-α-9-N-(biphenyl-2-carbonyl)-amino-9-desoxy-Neu5Ac] | 0.3 | 2.6 |  |  | 10 | 97 | 9.5 | 647 |  |  |  |  |
| COC(=O)C1(OC)CC(O)C(NC(=O)CF)C(C(O)C(O)CO)O1 (stereo not drawn) [Methyl-α-methyl-α-5-N-fluoracetyl-neuraminic acid] | 1.9 | 0.625 | 17.1 | 0.28 |  |  |  |  |  |  |  |  |
| CO[C@]1(C(=O)O)C[C@H](O)[C@@H](NC(C)=O)[C@H]([C@H](O)[C@H](O)CNC(=O)C(CNC(C)=O)NC(C)=O)O1 (stereo partly drawn) [Methyl-α-9-N-(2,3-diacetylaminopropanoyl)-amino-9-desoxy-Neu5Ac] | <<0.1 |  | 2.3 | 2.5 |  |  |  |  | (80%) | > 10 |  |  |

The remaining lines, values ahead:

| Siglec-1 (sialoadhesin) rIP [1] | IC50 ([1]; unit inferred) [mM] | Siglec-4a (MAG) rIP [2] | IC50 ([2]; unit inferred) [mM] | Siglec-2 (human CD22) rIP [3] | IC50 [3] [µM] | Siglec-2 (murine CD22) rIP [4] | IC50 [4] [µM] | Siglec-1 (sialoadhesin) percentage in parentheses below the IC50 bound [1] | IC50 ([1]; bounds given in mM) [mM] | Siglec-4a (MAG) percentage in parentheses below the IC50 bound [2] | IC50 ([2]; bounds given in mM) [mM] | Compound |
| --- | --- | --- | --- | --- | --- | --- | --- | --- | --- | --- | --- | --- |
|  |  |  |  | 5.7 | 180 | 7.4 | 620 |  |  |  |  | Methyl-α-9-N-(cyclobutendion)-amino-9-desoxy-Neu5Ac |
| <0.2 | > 4 |  |  |  |  |  |  | (57%) |  |  |  | COC1(C(=O)O)CC(O)C(NC(C)=O)C(C(O)C(O)CNC(=O)C(N)=O)O1 (stereo not drawn) [Methyl-α-9-N-oxamido-amino-9-desoxy-Neu5Ac] |
| 1.5 | 0.54 |  |  | 111 | 10 | 6.7 | 887 |  |  |  |  | COC1(C(=O)O)CC(O)C(NC(C)=O)C(C(O)C(O)CNC(=O)c2cccc(Oc3ccccc3)c2)O1 (stereo not drawn) [Methyl-α-9-N-(phenoxy-3-benzoyl)-amino-9-desoxy-Neu5Ac] |
| <<0.05 |  | <<0.27 |  |  |  |  |  |  |  | (116%) | > 10 | COC1(C(=O)O)CC(O)C(NC(C)=O)C(C(O)C(O)CSC)O1 (stereo not drawn) [Methyl-α-9-methylthio-9-desoxy-Neu5Ac] |
|  |  | 7 | 0.367 |  |  |  |  |  |  |  |  | COC1(C(=O)O)CC(O)C(NC(C)=O)C(C(O)C(O)CNC(=O)Cc2ccccc2)O1 (stereo not drawn) [Methyl-α-9-N-(phenylacetyl)-amino-9-desoxy-Neu5Ac] |
| 0.2 | 1.33 | 32 | 0.24 |  |  |  |  |  |  |  |  | CCOc1c(NC[C@@H](O)[C@@H](O)[C@@H]2O[C@@](OC)(C(=O)O)C[C@H](O)[C@H]2NC(C)=O)c(=O)c1=O [Methyl-α-9-N-(ethoxycyclobutendion)-amino-9-desoxy-Neu5Ac] |
| 0.3 | 6 | 6.5 | 0.733 |  |  |  |  |  |  |  |  | CO[C@]1(C(=O)O)C[C@H](O)[C@@H](NC(C)=O)[C@H]([C@H](O)[C@H](O)CNC(C)=S)O1 [Methyl-α-9-N-thioacetyl-amino-9-desoxy-Neu5Ac] |

Reference: patent publication US7820714B2, “Siglec inhibitors” (priority 2001, dated 2010)
